Among the data in BindingDB's records for doi:10.1016/j.ejmech.2018.08.069 (Kanazawa University, 2018) are IC50 values, retold here.

The nature of this experiment: Antagonist activity at AR in human LNCAP cells assessed as reduction in DHT-induced cell growth treated for every 2 days for 4 days by hemocytometry.

Each structure is given as a SMILES string.

`COc1ccc(O)c(C(=O)/C=C/c2ccccc2OC)c1`: the IC50 is > 10 µM.
On to `CC(C)Oc1ccccc1/C=C/C(=O)c1cc(Br)ccc1O`, for which the IC50 was 9.11 µM.
For the molecule `O=C(/C=C/c1ccccc1O)c1cc(Cl)ccc1O`, the 50% inhibitory concentration (IC50) turned out to be 3.74 µM.
As for `O=C1CC(c2ccccc2O)Oc2ccccc21` (stereo not given) [2-(2-Hydroxy-phenyl)-chroman-4-one], the IC50 amounted to 6.4 µM.
On to `O=c1cc(-c2ccccc2O)oc2ccccc12` [2-(2-Hydroxyphenyl)-4H-chromen-4-one (3d)], for which the concentration for half-maximal inhibition (IC50) is > 10 µM.
